Reference: patent US8835467B2, “SIR2 regulation” (Albert Einstein College of Medicine of Yeshiva University, priority 2003, dated 2014)

Biological target: T1, Mouse SIR2 enzyme (SIR2α) (Mus musculus, UniProt Q923E4)
T1 construct: purchased Upstate Group
T1 sequence (Q923E4 1-737): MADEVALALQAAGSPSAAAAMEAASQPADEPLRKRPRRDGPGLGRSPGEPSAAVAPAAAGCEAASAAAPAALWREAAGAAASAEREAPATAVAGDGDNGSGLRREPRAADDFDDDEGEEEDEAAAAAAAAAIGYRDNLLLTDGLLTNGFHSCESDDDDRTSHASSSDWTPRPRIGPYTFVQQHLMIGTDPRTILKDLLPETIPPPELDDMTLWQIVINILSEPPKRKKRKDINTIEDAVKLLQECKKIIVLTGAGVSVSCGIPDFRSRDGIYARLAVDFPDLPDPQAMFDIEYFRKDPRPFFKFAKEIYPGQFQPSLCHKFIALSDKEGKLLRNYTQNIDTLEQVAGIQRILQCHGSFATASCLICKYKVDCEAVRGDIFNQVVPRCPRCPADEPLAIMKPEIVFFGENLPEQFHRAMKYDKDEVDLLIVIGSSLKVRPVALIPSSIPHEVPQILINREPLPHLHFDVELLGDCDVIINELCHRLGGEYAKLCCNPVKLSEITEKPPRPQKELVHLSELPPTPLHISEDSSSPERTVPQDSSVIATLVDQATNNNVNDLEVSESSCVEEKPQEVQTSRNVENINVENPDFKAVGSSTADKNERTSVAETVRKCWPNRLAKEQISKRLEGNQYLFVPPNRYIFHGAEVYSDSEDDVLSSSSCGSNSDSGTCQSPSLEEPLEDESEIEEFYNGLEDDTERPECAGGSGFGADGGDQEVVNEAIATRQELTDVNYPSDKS
Experiment: SIR2 deacetylation assay (p53 peptide, HPLC of ADPR and 3′-O-acetyl-ADPR)
Type: biochemical
Method: After 2 hours, aliquots of 10 μL removed at 0, 30, 60, 90 and 120 min. Each aliquot was combined with 50 μL 50 mM ammonium acetate pH 5.0 to quench and assayed by HPLC for deacetylation products and NAD^+. The chromatograms (260 nm) were obtained using 50 mM ammonium acetate pH 5.0 as eluant on a semi-preparative Waters C-18 column (2.0 mL/min flow rate). Peaks for ADPR and 3′-O-Acetyl-ADPR were quantified by integration. The peak for NAD^+ was collected and radiation counted.
Reactions were as above but base reactions contained 5 mM of pyrazinamide, isonicotinamide, thionicotinamide, or benzamide. Reactions were carried out (2 hours for AF2 and yeast enzymes and 3 hours for mouse enzyme) at 37° C. and quenched by addition of 80 μL 50 mM ammonium acetate pH 5.0. Product formation was quantified by HPLC. […] Rates were compared with controls lacking added base.

SMILES: NC(=O)c1ccncc1 [Isonicotinamide]
- inhibition at 5000 µM: 18%
